Measured values reported in patent publication US9144595B2, “APLs for treating arthritis” (University of Tennessee Research Foundation, priority 2009, dated 2015).

Legend:
FcεRIγ = FcεRIγ expression in DR1 TCR tg cells; format: cell-based, mouse; conditions: DR1 TCR tg cells cultured with peptide 48 hours; FIG. 6
Description: In FIG. 6 it is shown that A12 treatment increases […] expression. In the graph with axis 610 for the percentage of the maximum, axis 615 for the number of occurrences on a log scale, line 620 is for A2, line 625 is for media alone, and line 630 is for A12. Splenocytes from DR1 TCR transgenic mice were cultured for 48 hours in the presence of A12 (dark grey line), A2 (black line) or media alone (light grey line). […] The cells cultured with A2 peptide are no different than unstimulated controls.
Finally, we examined the expression of FcεRIγ, a molecule known to associate with the TCR complex. In some circumstances, the TCR is rewired so that the FcRgamma chain assumes the function of the zeta chain. Therefore, the DR1 TCR tg cells were cultured with either A12, or A2, or media alone and stained with an antibody specific for the gamma chain of the FcεRIγ molecule.

TCR-ζ chain = assay: Phosphorylation of the TCR-ζ chain in CII-specific CD4+ T cells; format: cell-based, mouse; conditions: CD4+ T cells cultured with peptide-pulsed APCs; FIG. 4
Description: Purified CD4+ cells from the DR1-TCR tg mice are an excellent source of cells to explore the intracellular signaling pathways induced by either A2 or A12. In preliminary experiments we precipitated proteins with an antibody specific for CD3-ζ (34) to examine for the presence of phosphorylated proteins.
CD4+T cells were cultured with APC's pulsed with the wild-type peptide (WT), A12, or no antigen (No Ag). Proteins were immunoprecipitated with […] of affinity-purified anti-TCR-ζ antibody. The immunoprecipitates were separated by SDS-12%-PAGE, and transferred to nitrocellulose membrane. The membrane was blotted with monoclonal anti-phosphotyrosine antibody (α-pTyr). The positions of the phosphorylated-TCR-ζ are shown by arrows 410, 415. The 21 kDa and 23 kDa bands were not detected in immunoprecipitates from a B cell lymphoma line (data not shown). Bands for the total amount of zeta protein were identical for all three columns. Arrows 410 and 415 are shown denoting 21 kDa and 23 kDa bands, respectively. […] The bands are for No Ag 440, Wt 445, and A12 450. The bands are shown: Wt 425, No Ag 435, A12 430. Bands for zeta protein are shown: No Ag 455, Wt 460, and A12 465.

RA PBMC = assay: Stability of HC Peptide 1 stored at 4° C., tested on IFNγ production by RA PBMC; format: cell-based, human
Description: Approximately 70% of the patients screened should have one or more of the RA shared epitope alleles. If the trend we saw in the small preliminary data sample holds true for the larger sample size, the majority of APL A12 responders will have one or more of the shared epitopes. […] Each month we will prepare a fresh stock solution of APL A12 dissolved in PBS, filter sterilized and stored at 4° C. APL A12 stored at 4° C. in solution retains it biologic activity for >30 days. A fresh solution of α1(II) will also be prepared each month and stored at 4° C. and handled using sterile technique.
HC Peptide 1 was dissolved in phosphate buffered saline and stored at 4° C. for up to five months and then tested and compared in vitro with freshly prepared HC Peptide 1 to inhibit IFNγ production by RA patients PBMC stimulated by α1(II).

Sequence: LGPKGQTGEBGIAGAKGDQGPKGEBGPA [APL A12]
- FcR gamma chain (FcεRIγ) expression (FcεRIγ): significant increase
- TCR-ζ chain phosphorylation (TCR-ζ chain): did not significantly activate
- IFNγ Concentration in PBMC Supernatants (RA PBMC; A12 0.1 μg/ml + PBS, A12 stored at 4° C. 6 Days): 26 pg/mL
- IFNγ Concentration in PBMC Supernatants (RA PBMC; A12 0.1 μg/ml + PBS, A12 stored at 4° C. 78 Days): 0 pg/mL
- IFNγ Concentration in PBMC Supernatants (RA PBMC; A12 0.1 μg/ml + PBS, A12 stored at 4° C. 143 Days): 0 pg/mL
- IFNγ Concentration in PBMC Supernatants (RA PBMC; A12 0.1 μg/ml + α1(II) 50 μg/ml, A12 stored at 4° C. 6 Days): 45 pg/mL
- IFNγ Concentration in PBMC Supernatants (RA PBMC; A12 0.1 μg/ml + α1(II) 50 μg/ml, A12 stored at 4° C. 78 Days): 10 pg/mL
- IFNγ Concentration in PBMC Supernatants (RA PBMC; A12 0.1 μg/ml + α1(II) 50 μg/ml, A12 stored at 4° C. 143 Days): 22 pg/mL
- IFNγ Concentration in PBMC Supernatants (RA PBMC; A12 1 μg/ml + PBS, A12 stored at 4° C. 6 Days): 10 pg/mL
- IFNγ Concentration in PBMC Supernatants (RA PBMC; A12 1 μg/ml + PBS, A12 stored at 4° C. 78 Days): 0 pg/mL
- IFNγ Concentration in PBMC Supernatants (RA PBMC; A12 1 μg/ml + PBS, A12 stored at 4° C. 143 Days): 0 pg/mL
- IFNγ Concentration in PBMC Supernatants (RA PBMC; A12 1 μg/ml + α1(II) 50 μg/ml, A12 stored at 4° C. 6 Days): 23 pg/mL
- IFNγ Concentration in PBMC Supernatants (RA PBMC; A12 1 μg/ml + α1(II) 50 μg/ml, A12 stored at 4° C. 78 Days): 37 pg/mL
- IFNγ Concentration in PBMC Supernatants (RA PBMC; A12 1 μg/ml + α1(II) 50 μg/ml, A12 stored at 4° C. 143 Days): 6 pg/mL
- IFNγ Concentration in PBMC Supernatants (RA PBMC; A12 10 μg/ml + PBS, A12 stored at 4° C. 6 Days): 0 pg/mL
- IFNγ Concentration in PBMC Supernatants (RA PBMC; A12 10 μg/ml + PBS, A12 stored at 4° C. 78 Days): 0 pg/mL
- IFNγ Concentration in PBMC Supernatants (RA PBMC; A12 10 μg/ml + PBS, A12 stored at 4° C. 143 Days): 0 pg/mL
- IFNγ Concentration in PBMC Supernatants (RA PBMC; A12 10 μg/ml + α1(II) 50 μg/ml, A12 stored at 4° C. 6 Days): 77 pg/mL
- IFNγ Concentration in PBMC Supernatants (RA PBMC; A12 10 μg/ml + α1(II) 50 μg/ml, A12 stored at 4° C. 78 Days): 82 pg/mL
- IFNγ Concentration in PBMC Supernatants (RA PBMC; A12 10 μg/ml + α1(II) 50 μg/ml, A12 stored at 4° C. 143 Days): 21 pg/mL
- stability: ability to inhibit IFNγ production by α1(II) stimulated RA PBMC after storage (RA PBMC; dissolved in phosphate buffered saline, stored at 4° C. for up to 5 months): retained its ability to inhibit IFNγ production
- time for which biologic activity is retained (RA PBMC; stored at 4° C. in solution (PBS)): > 30 days
